In patent EP2999467B1, “USE OF A COMBINATION OF TWO COMPOUNDS FOR THE TREATMENT AND/OR PREVENTION OF BONE DISORDERS” (Institut National de la Recherche Agronomique (INRA), priority 2013, dated 2014):

System: préostéoblastes primaires
Assay: ALP activity measurement in differentiating osteoblasts
Assay type: cell-based, rats Wistar
Conditions: Rattus norvegicus, Osteoblast, read-out: activité ALP par rapport à la condition « AA+βGP seuls »
From the text: Les préostéoblastes primaires ont été isolés à partir de la calotte crânienne de rats Wistar nouveaux-nés par digestion enzymatique comme précédemment décrit [Declercq, H., Van den Vreken, N., De Maeyer, E., Verbeeck, R., Schacht, E., De Ridder, L., and Cornelissen, M. (2004). Isolation, proliferation and differentiation of osteoblastic cells to study cell/biomaterial interactions: comparison of different isolation techniques and source. Biomaterials 25, 757-68.]. Les précurseurs d'ostéoclastes RAW264.7 ont été obtenus auprès de l'ATCC (Manassas, VA, USA). Les préostéoblastes et les RAW264.7 ont été cultivés dans du milieu α-MEM (Invitrogen, Carlsbad, CA, USA) supplémenté avec 10% de SVF décomplémenté et de 100 unités/ml de pénicilline-streptomycine.
Les préostéoblastes primaires ont été ensemencés à 3500 cellules par puits dans des plaques 96 puits traitées au collagène. Trente-six heures plus tard, les cellules ont été prétraitées avec du DMSO comme témoin ou de la fisétine (1 à 5 µM) pendant 12 heures, puis induites à se différentier avec 25 µg/ml d'acide ascorbique et 5 mM de bêta-glycérophosphate en présence de DMSO ou de fisétine (1 à 5 µM). L'activité enzymatique ALP a été mesurée en cinétique après 0, 5, 7 et 12 jours de traitement avec un changement de milieux tous les 2 jours. Les cellules ont été lysées par des cycles de gel-dégel et les lysats ont subi une homogénéisation dans 200 µl de tampon chlorure de magnésium hexahydrate, di-éthanoamine à un pH de 9,8. Les lysats cellulaires (10 µl) ont été ajoutés à 200 µl de solution de p-nitrophényl phosphate (16,2 mM) et l'absorbance a été mesurée en utilisant un lecteur de microplaques à 405 nm toutes les 90 seconds pendant 30min. Pour chaque échantillon, la concentration de protéines a été analysée pour exprimer les résultats sous forme de µmol de p-nitrophenol/heure/mg de protéines.

O=c1c(O)c(-c2ccc(O)c(O)c2)oc2cc(O)ccc12 [Fisétine, 3,3',4',7-tétrahydroxyflavone]
activation at 1 µM (AA+βGP+Fisétine 1 µM): 32%
activation at 5 µM (AA+βGP+Fisétine 5µM): 87%
activation at 2.5 µM (AA+βGP+Fisétine 2,5µM): 63%
